These results are taken from publication PMC11858207, “Discovery of Isobavachin, a Natural Flavonoid, as an Apolipoprotein E4 (ApoE4) Structure Corrector for Alzheimer’s Disease” (Molecules, 2025).

One series addresses T1, human recombinant ApoE3 (Homo sapiens, UniProt P02649).
T1 construct: purchased PeproTech
As to the kind of experiment: Surface plasmon resonance (SPR) binding, ApoE3. The note with it: Biacore T200. The source says:
(§1) The top virtual hit Isobavachin was further subjected to surface plasmon resonance (SPR) analysis using Biacore T200 (Cytiva, Marlborough, MA, USA) to determine its binding constants with both the ApoE3 and ApoE4 proteins. Together with the human recombinant ApoE3 and ApoE4 proteins, a negative control protein 2′-deoxynucleoside 5′-phosphate N-hydrolase (His-Sumo-DNPH1) was also included in the SPR analysis. The His-Sumo-DNPH1 is structurally unrelated to ApoE proteins, while having a similar size as ApoE proteins (~30 KDa).
(§2) The biophysical binding analysis of ligands with ApoE3 and ApoE4 proteins was carried out using the SPR technique. Human recombinant ApoE3 or ApoE4 proteins were purchased from PeproTech (Cranbury, NJ, USA) and reconstituted according to the manufacturer’s instructions. The negative control protein was His-Sumo-DNPH1 (2′-deoxynucleoside 5′-phosphate N-hydrolase 1), produced in-house in E. coli by The Wistar Institute, Philadelphia. The proteins were covalently attached to a carboxymethyl dextran sensor chip (CMD700M, from Xantec bioanalytics, Düsseldorf, Germany) using standard amine coupling in HEPES buffered saline. The chip is first conditioned for 180 s at 10 µL/min with 1 M NaCl, 0.1 mM Na Borate, pH 9.0, and then activated with 250 mM EDC/100 mM NHS for 600 s at 10 µL/min. The ApoE3/4 and DNPH1 proteins diluted in 10 mM sodium acetate (pH 5.5 and 4.0, respectively) were injected and immobilized on respective flow cells. After immobilization, the remaining activated sites were blocked with 1 M ethanolamine at 10 µL/min for 180 s. Test compounds (purchased from Cayman Chemical (Ann Arbor, MI, USA) and MedChemExpress (Monmouth Junction, NJ, USA)) were first diluted in pure DMSO, which were then further diluted in the running buffer without DMSO (10 mM HEPES, pH 7.4, 150 mM NaCl, 0.005% Tween20) to match the DMSO concentrations of the sample and the running buffer. The association and dissociation times were 60s and 120s, respectively, and the flow rate was 30 µL/min. After each compound injection, the needle was washed in 50% DMSO to reduce compound carry-over. Solvent correction cycles were also included to correct for bulk refractive index changes associated with DMSO.
A general note: SPR reads the build-up and loss of mass on a sensor chip optically.

A further series has as its target T2, human recombinant ApoE4 (Homo sapiens, UniProt P02649, C130R).
T2 construct: purchased PeproTech
The experiment in a line: Surface plasmon resonance (SPR) binding, ApoE4. The note with it: Biacore T200.
Text: as §1, §2

Series [1] concerns the target T3, His-Sumo-DNPH1 (2′-deoxynucleoside 5′-phosphate N-hydrolase 1) (Homo sapiens, UniProt O43598).
T3 construct: made in house; host or cells: E. coli
T3 sequence (O43598 1-174): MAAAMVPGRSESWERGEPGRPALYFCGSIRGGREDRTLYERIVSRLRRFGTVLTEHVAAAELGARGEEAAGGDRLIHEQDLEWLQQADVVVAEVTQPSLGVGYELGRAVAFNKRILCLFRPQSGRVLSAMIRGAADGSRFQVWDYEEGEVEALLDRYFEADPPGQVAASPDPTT
The experiment in a line: Surface plasmon resonance (SPR) binding, negative control protein.
Text: as §1, §2

The next series has as its target ApoE4. Also noted: method as in PMID 30933499. The conditions noted are these: experimental ApoE4 binding Kd reported by AbbVie team; read-out: NMR Kd; cited from earlier work.
Details of series [2]: method as in PMID 29425649. The conditions noted are these: cited from earlier work.

Molecules are shown by their SMILES. Values joined by “and” are separate entries in the source; they are usually repeats but may differ in a detail not shown here. Identical values can stand only once. A value given as a limit tells only on which side of the number the result lay.

T1 sequence (P02649 19-317): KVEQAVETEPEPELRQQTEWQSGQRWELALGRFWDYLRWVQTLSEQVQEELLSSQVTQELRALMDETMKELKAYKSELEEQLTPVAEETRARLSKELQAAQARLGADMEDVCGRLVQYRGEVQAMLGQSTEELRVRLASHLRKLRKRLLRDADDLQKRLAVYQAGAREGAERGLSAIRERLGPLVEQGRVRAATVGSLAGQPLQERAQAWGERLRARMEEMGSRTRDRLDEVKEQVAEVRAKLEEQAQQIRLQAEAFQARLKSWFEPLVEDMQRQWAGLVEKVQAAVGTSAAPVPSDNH
T2 sequence (P02649 19-317 C130R): as the sequence (P02649 19-317) above, with C112R counted along it

The term Kd denotes the equilibrium constant for the complex coming apart. As to `Oc1ccc(C2=Cc3ccc(O)cc3OC2)cc1` [Idronoxil], the Kd (on human recombinant ApoE3; at human recombinant ApoE4; in series [1]) was above 100 µM in each case.

As for `N=C(N)C1(c2cc(Cl)cc(-c3ccc(CO)c(Cl)c3)c2)CCC1` [compound 155557185], at ApoE4, the Kd was 8 ± 3 µM.

As to `O=c1c(-c2ccc(O)cc2)coc2cc(O)cc(O)c12` [Genistein], the Kd (at human recombinant ApoE3; at human recombinant ApoE4; in series [1]) was above 100 µM in each case.

As to `CC(C)=CCc1c(-c2ccc(O)cc2O)oc2c3c(cc(O)c2c1=O)OC(C)(C)C=C3` [Morusin], the values for the Kd (at human recombinant ApoE3; on human recombinant ApoE4; in series [1]) were above 100 µM, above 100 µM and 69 µM, respectively.

On to `CC(C)=CCc1c(-c2ccc(O)cc2O)oc2c(CC=C(C)C)c(O)cc(O)c2c1=O` [Mulberrin], for which the Kd (on human recombinant ApoE3; on human recombinant ApoE4; in series [1]) was above 100 µM throughout.

For `CC(C)=CCc1c(O)ccc2c1O[C@H](c1ccc(O)cc1)CC2=O` [Isobavachin], the Kd was ~0.62 µM and 0.62 µM on human recombinant ApoE3; ~0.54 µM and 0.54 µM on human recombinant ApoE4; above 100 µM in series [1]. The “blood–brain barrier (BBB) penetration” value in series [2] is “readily penetrate”.

With `CC(=O)NCc1ccc(-c2cc(Cl)cc(C3(C(=N)N)CCC3)c2)cc1` [compound 155563897], the Kd on ApoE4 was 20 ± 3 µM.

With `CC(C)(O)c1ccc(-c2cc(Cl)cc(C3(C(=N)N)CCC3)c2)cc1` [compound 137796780], the Kd at ApoE4 is 30 ± 4 µM.

For the compound `N=C(N)C1(c2cc(Cl)cc(-c3ccccc3)c2)CCC1` [compound 155530661], at ApoE4, the Kd was 230 ± 24 µM.

As for `N=C(N)C1(c2cccc(Cl)c2)CCC1` [compound 83673143], the Kd on ApoE4 was 900 ± 108 µM.

As for `CC(C)=CCc1cc2c(cc1O)O[C@H](c1ccc(O)cc1)CC2=O` [Bavachin], the results for the Kd on human recombinant ApoE3 and at human recombinant ApoE4 were 59 µM and 64 µM, respectively. In addition, in series [1], the “DNPH1 Kd” value is “No binding”.

In the case of `CCNS(=O)(=O)c1ccc(-c2cc(Cl)cc(C3(C(=N)N)CCC3)c2)cc1` [compound 155552638], the Kd at ApoE4 is 20 ± 4 µM.

With `COc1cc(O)c(CC=C(C)C)c2c1C(=O)CC(c1ccc(O)cc1)O2` (stereo not shown) [Isoxanthohumol], the Kd is 38 µM on human recombinant ApoE3, 40 µM on human recombinant ApoE4 and above 100 µM in series [1].

For the compound `CC(C)=CCc1cc([C@@H]2CC(=O)c3ccc(O)c(CC=C(C)C)c3O2)ccc1O` [Glabrol], the Kd on human recombinant ApoE3 was above 100 µM; at human recombinant ApoE4, 77 µM; in series [1] it was above 100 µM.

Regarding `O=c1c(-c2ccc(O)cc2)coc2cc(O)ccc12` [Daidzein], the Kd (on human recombinant ApoE3; at human recombinant ApoE4; in series [1]) was above 100 µM throughout.
